Measured values as given in US9340513B2, “Propenoate derivatives of betulin” (GlaxoSmithKline LLC, priority 2011, dated 2016).

Test system: HIV-1 (strain IIIB)
Experiment: MT4 Cell Antiviral Assay
Format: cell-based
Settings: Human immunodeficiency virus 1, 120 h; HIV-1 strain IIIB in MT4 cells, 5 days, Cell Titer-Glo; 50% decrease in HIV-induced cytopathic effect
Protocol: Antiviral HIV activity and compound-induced cytotoxicity were measured in parallel based on a modified protocol of the propidium iodide based procedure in the human T-cell lymphotropic virus transformed cell line MT4. Aliquots of the test compounds were serially diluted in DMSO plated in 96-well plates. Exponentially growing MT4 cells were harvested and pelleted. Cell pellets were resuspended in fresh medium (RPMI 1640, 10% FCS, and gentamycin. Cell aliquots were infected by the addition of HIV-1 (strain IIIB) diluted to give a viral multiplicity of infection of 300×TCID50/million cells. A similar cell aliquot was diluted with medium to provide a mock-infected control. Cell infection was allowed to proceed for 1 hr at 37° C. in a tissue culture incubator with humidified 5% CO2 atmosphere. After the 1 hr incubation the virus/cell suspensions were diluted with fresh medium, and added to each well of the plate containing pre-diluted compound. Plates were then placed in a tissue culture incubator with humidified 5% CO2 for 5 days. […] The plates were analyzed in an automated plate reader for luminescence.assay. The control and standard used was efavirinz tested over a concentration range of 0.001 to 1 μM in every assay. The expected range of IC50 values for efavirinz is 0.1 to 1 nM.
The antiviral effect of a test compound is reported as an IC50, i.e. the inhibitory concentration that would produce a 50% decrease in the HIV-induced cytopathic effect. This effect is measured by the amount of test compound required to restore 50% of the cell growth of HIV-infected MT4 cells, compared to uninfected MT4 cell controls. IC50 was calculated by RoboSage, Automated Curve Fitting Program.
For each assay plate, the results (of wells containing uninfected cells or infected cells with no compound were averaged, respectively. For measurements of compound-induced cytotoxicty, results from wells containing various compound concentrations and uninfected cells were compared to the average of uninfected cells without compound treatment. Percent of cells remaining is determined by the following formula: Percent of cells remaining=(compound-treated uninfected cells/untreated uninfected cells)×100.
A level of percent of cells remaining of 79% or less indicates a significant level of direct compound-induced cytotoxicity for the compound at that concentration. When this condition occurs the results from the compound-treated infected wells at this concentration are not included in the calculation of IC50.
For measurements of compound antiviral activity, results from wells containing various compound concentrations and infected cells are compared to the average of uninfected and infected cells without compound treatment. Percent inhibition of virus is determined by the following formula: Percent inhibition of virus=(1−((ave. untreated uninfected cells−treated infected cells)/(ave. untreated uninfected cells−ave. untreated infected cells)))×100

SMILES	IC50 [nM]
CC(C)C1=C2[C@H]3CC[C@@H]4[C@@]5(C)CC[C@H](OC(=O)CC(C)(C)C(=O)O)C(C)(C)[C@@H]5CC[C@@]4(C)[C@]3(C)CC[C@@]2(/C=C/C(=O)NC2(c3ccc(Cl)cc3)CC2)CC1=O [Example 1, 4-(((3aS,5aR,5bR,7aR,9S,11aR,11bR,13aS)-3a-((E)-3-((1-(4-Chlorophenyl)cyclopropyl)amino)-3-oxoprop-1-en-1-yl)-1-isopropyl-5a,5b,8,8,11a-pentamethyl-2-oxo-3,3a,4,5,5a,5b,6,7,7a,8,9,10,11,11a,11b,12,13,13a-octadecahydro-2H-cyclopenta[a]chrysen-9-yl)oxy)-2,2-dimethyl-4-oxobutanoic acid]	< 10
CC(C)C1=C2[C@H]3CC[C@@H]4[C@@]5(C)CC[C@H](OC(=O)CC(C)(C)C(=O)O)C(C)(C)[C@@H]5CC[C@@]4(C)[C@]3(C)CC[C@@]2(/C=C/C(=O)Nc2ccc(Cl)cc2)CC1=O [Example 2, 4-(((3aS,5aR,5bR,7aR,9S,11aR,11bR,13aS)-3a-((E)-3-((4-Chlorophenyl)amino)-3-oxoprop-1-en-1-yl)-1-isopropyl-5a,5b,8,8,11a-pentamethyl-2-oxo-3,3a,4,5,5a,5b,6,7,7a,8,9,10,11,11a,11b,12,13,13a-octadecahydro-2H-cyclopenta[a]chrysen-9-yl)oxy)-2,2-dimethyl-4-oxobutanoic acid]	10 to 250
CC(C)C1=C2[C@H]3CC[C@@H]4[C@@]5(C)CC[C@H](OC(=O)CC(C)(C)C(=O)O)C(C)(C)[C@@H]5CC[C@@]4(C)[C@]3(C)CC[C@@]2(/C=C/C(=O)N[C@@H](C)c2ccc(Cl)cn2)CC1=O [Example 3, 4-(((3aS,5aR,5bR,7aR,9S,11aR,11bR,13aS)-3a-((E)-3-(((S)-1-(5-Chloropyridin-2-yl)ethyl)amino)-3-oxoprop-1-en-1-yl)-1-isopropyl-5a,5b,8,8,11a-pentamethyl-2-oxo-3,3a,4,5,5a,5b,6,7,7a,8,9,10,11,11a,1 b,12,13,13a-octadecahydro-2H-cyclopenta[a]chrysen-9-yl)oxy)-2,2-dimethyl-4-oxobutanoic acid]	< 10
CC(C)C1=C2[C@H]3CC[C@@H]4[C@@]5(C)CC[C@H](OC(=O)CC(C)(C)C(=O)O)C(C)(C)[C@@H]5CC[C@@]4(C)[C@]3(C)CC[C@@]2(/C=C/C(=O)N[C@H](C)c2ccc(Cl)cc2)CC1=O [Example 4, 4-(((3aS,5aR,5bR,7aR,9S,11aR,11bR,13aS)-3a-((E)-3-(((R)-1-(4-Chlorophenyl)ethyl)amino)-3-oxoprop-1-en-1-yl)-1-isopropyl-5a,5b,8,8,11a-pentamethyl-2-oxo-3,3a,4,5,5a,5b,6,7,7a,8,9,10,11,11a,11b,12,13,13a-octadecahydro-2H-cyclopenta[a]chrysen-9-yl)oxy)-2,2-dimethyl-4-oxobutanoic acid]	10 to 250
CC(C)C1=C2[C@H]3CC[C@@H]4[C@@]5(C)CC[C@H](OC(=O)CC(C)(C)C(=O)O)C(C)(C)[C@@H]5CC[C@@]4(C)[C@]3(C)CC[C@@]2(/C=C/C(=O)N[C@H](C)c2ccc(Cl)cn2)CC1=O [Example 5, 4-(((3aS,5aR,5bR,7aR,9S,11aR,11bR,13aS)-3a-((E)-3-(((R)-1-(5-Chloropyridin-2-yl)ethyl)amino)-3-oxoprop-1-en-1-yl)-1-isopropyl-5a,5b,8,8,11a-pentamethyl-2-oxo-3,3a,4,5,5a,5b,6,7,7a,8,9,10,11,11a,1 b,12,13,13a-octadecahydro-2H-cyclopenta[a]chrysen-9-yl)oxy)-2,2-dimethyl-4-oxobutanoic acid]	< 10
CC(C)C1=C2[C@H]3CC[C@@H]4[C@@]5(C)CC[C@H](OC(=O)CC(C)(C)C(=O)O)C(C)(C)[C@@H]5CC[C@@]4(C)[C@]3(C)CC[C@@]2(/C=C/C(=O)N[C@@H](C)c2ccc(Cl)cc2)CC1=O [Example 6, 4-(((3aS,5aR,5bR,7aR,9S,11aR,11bR,13aS)-3a-((E)-3-(((S)-1-(4-Chlorophenyl)ethyl)amino)-3-oxoprop-1-en-1-yl)-1-isopropyl-5a,5b,8,8,11a-pentamethyl-2-oxo-3,3a,4,5,5a,5b,6,7,7a,8,9,10,11,11a,11b,12,13,13a-octadecahydro-2H-cyclopenta[a]chrysen-9-yl)oxy)-2,2-dimethyl-4-oxobutanoic acid]	10 to 250
CC(C)C1=C2[C@H]3CC[C@@H]4[C@@]5(C)CC[C@H](OC(=O)CC(C)(C)C(=O)O)C(C)(C)[C@@H]5CC[C@@]4(C)[C@]3(C)CC[C@@]2(/C=C/C(=O)NC2(c3ccc(Cl)cn3)CC2)CC1=O [Example 7, 4-(((3aS,5aR,5bR,7aR,9S,11aR,11bR,13aS)-3a-((E)-3-((1-(5-Chloropyridin-2-yl)cyclopropyl)amino)-3-oxoprop-1-en-1-yl)-1-isopropyl-5a,5b,8,8,11a-pentamethyl-2-oxo-3,3a,4,5,5a,5b,6,7,7a,8,9,10,11,11a,11b,12,13,13a-octadecahydro-2H-cyclopenta[a]chrysen-9-yl)oxy)-2,2-dimethyl-4-oxobutanoic acid]	< 10
CC(C)C1=C2[C@H]3CC[C@@H]4[C@@]5(C)CC[C@H](OC(=O)CC(C)(C)C(=O)O)C(C)(C)[C@@H]5CC[C@@]4(C)[C@]3(C)CC[C@@]2(/C=C/C(=O)N[C@@H](C)c2ccncn2)CC1=O [Example 8, 4-(((3aS,5aR,5bR,7aR,9S,11aR,11bR,13aS)-1-Isopropyl-5a,5b,8,8,11a-pentamethyl-2-oxo-3a-((E)-3-oxo-3-(((S)-1-(pyrimidin-4-yl)ethyl)amino)prop-1-en-1-yl)-3,3a,4,5,5a,5b,6,7,7a,8,9,10,11,11a,11b,12,13,13a-octadecahydro-2H-cyclopenta[a]chrysen-9-yl)oxy)-2,2-dimethyl-4-oxobutanoic acid]	10 to 250
CC(C)C1=C2[C@H]3CC[C@@H]4[C@@]5(C)CC[C@H](OC(=O)CC(C)(C)C(=O)O)C(C)(C)[C@@H]5CC[C@@]4(C)[C@]3(C)CC[C@@]2(/C=C/C(=O)N[C@H](C)c2ccncn2)CC1=O [Example 9, 4-(((3aS,5aR,5bR,7aR,9S,11aR,11bR,13aS)-1-Isopropyl-5a,5b,8,8,11a-pentamethyl-2-oxo-3a-((E)-3-oxo-3-(((R)-1-(pyrimidin-4-yl)ethyl)amino)prop-1-en-1-yl)-3,3a,4,5,5a,5b,6,7,7a,8,9,10,11,11a,11b,12,13,13a-octadecahydro-2H-cyclopenta[a]chrysen-9-yl)oxy)-2,2-dimethyl-4-oxobutanoic acid]	10 to 250
CC(C)C1=C2[C@H]3CC[C@@H]4[C@@]5(C)CC[C@H](OC(=O)CC(C)(C)C(=O)O)C(C)(C)[C@@H]5CC[C@@]4(C)[C@]3(C)CC[C@@]2(/C=C/C(=O)N[C@H](C)c2ncccn2)CC1=O [Example 10, 4-(((3aS,5aR,5bR,7aR,9S,11aR,11bR,13aS)-1-Isopropyl-5a,5b,8,8,11a-pentamethyl-2-oxo-3a-((E)-3-oxo-3-(((R)-1-(pyrimidin-2-yl)ethyl)amino)prop-1-en-1-yl)-3,3a,4,5,5a,5b,6,7,7a,8,9,10,11,11a,11b,12,13,13a-octadecahydro-2H-cyclopenta[a]chrysen-9-yl)oxy)-2,2-dimethyl-4-oxobutanoic acid]	10 to 250
CC(C)C1=C2[C@H]3CC[C@@H]4[C@@]5(C)CC[C@H](OC(=O)CC(C)(C)C(=O)O)C(C)(C)[C@@H]5CC[C@@]4(C)[C@]3(C)CC[C@@]2(/C=C/C(=O)N[C@@H](C)c2ncccn2)CC1=O [Example 11, 4-(((3aS,5aR,5bR,7aR,9S,11aR,11bR,13aS)-1-isopropyl-5a,5b,8,8,11a-pentamethyl-2-oxo-3a-((E)-3-oxo-3-(((S)-1-(pyrimidin-2-yl)ethyl)amino)prop-1-en-1-yl)-3,3a,4,5,5a,5b,6,7,7a,8,9,10,11,11a,11b,12,13,13a-octadecahydro-2H-cyclopenta[a]chrysen-9-yl)oxy)-2,2-dimethyl-4-oxobutanoic acid]	10 to 250
CC(C)C1=C2[C@H]3CC[C@@H]4[C@@]5(C)CC[C@H](OC(=O)CC(C)(C)C(=O)O)C(C)(C)[C@@H]5CC[C@@]4(C)[C@]3(C)CC[C@@]2(/C=C/C(=O)NC2(c3ccccn3)CC2)CC1=O [Example 12, 4-(((3aS,5aR,5bR,7aR,9S,11aR,11bR,13aS)-1-Isopropyl-5a,5b,8,8,11a-pentamethyl-2-oxo-3a-((E)-3-oxo-3-((1-(pyridin-2-yl)cyclopropyl)amino)prop-1-en-1-yl)-3,3a,4,5,5a,5b,6,7,7a,8,9,10,11,11a,11b,12,13,13a-octadecahydro-2H-cyclopenta[a]chrysen-9-yl)oxy)-2,2-dimethyl-4-oxobutanoic acid]	< 10
